Reference: article PMC10780819, “Enhanced Cytotoxicity and Antimelanoma Activity of Novel Semisynthetic Derivatives of Betulinic Acid with Indole Conjugation” (Plants, 2023)
“Also recorded” adds a separate entry of the source.

Key:
B164A5 cells = assay: Scratch (wound healing) anti-migratory assay; assay type: cell-based, murine; conditions: 50 µM, 24 h
Protocol: To evaluate the invasion capability of B164A5 cells after stimulation with the tested compounds (1, 10, 25, and 50 µM), a scratch-based experiment was conducted. In summary, a quantity of 2 × 10^5 cells/well were evenly distributed onto 12-well culture plates until a complete and cohesive layer of cells was achieved. Subsequently, a sterile pipette tip was used to create a void in the center of each well. The cells and cellular debris that were detached subsequent to the process were carefully rinsed using phosphate buffer saline (PBS). Additionally, the cells were subjected to stimulation with the tested compounds. Photographs of the scratched region were captured at two time points: 0 h and 24 h. The images were obtained using an inverted microscope (Olympus IX73, Olympus, Tokyo, Japan) with a DP74 camera (Olympus, Tokyo, Japan) at a magnification of 10×. The cellSense Dimension program was used for the purpose of analyzing cell growth.
The scratch closure rate was calculated using the formula [78]:Scratch closure rate = [(At0 − At)/[…]] × 100, where At0 represents the initial scratch area at time 0 h, and At represents the scratch area after 24 h.

[1] = tested on: murine melanoma B164A5 cells; assay: Hoechst 33342 nuclear staining; assay type: cell-based; conditions: 25, 50, 75 μM tested; exposure per Figure 7 legend
Protocol: The procedure was implemented in accordance with the manufacturer’s recommendations. […] A positive control was used to induce apoptosis, using a concentration of 5 µM staurosporine for a duration of 3 h at a temperature of 37 °C. Similarly, for necrosis induction, a concentration of 0.5% Triton X-100 was utilized, with an incubation period of 30 min at 37 °C.

[2] = tested on: human melanoma cell line A375; set-up: method as in PMID 36986941; conditions: cited from earlier work; for wound healing rate: 50 µM
[3] = tested on: murine melanoma cells B164A5; set-up: cell viability: dose or concentration left out as unconfirmed; conditions: cited from earlier work
HaCaT cells = conditions: concentrations over 10 μM; cited from earlier work
[4] = tested on: human melanoma A375 cells; conditions: cited from earlier work; for cytotoxic effect (LDH): 25 µM
[5] = tested on: HaCaT human keratinocyte cell line; assay: MTT cell viability assay on HaCaT; conditions: for reduction in cell viability: increasing dosages (25, 50, and 75 μM), 72 h
Protocol: (§1) The effect of testing substances (BI and BA1-BA4) on the survival of human keratinocytes cell line HaCat was also assessed.
(§2) The MTT assay was used to determine the effect of 2,3-indolo-betulinic acid derivatives and betulinic acid on the viability of HaCaT human keratinocyte cell line and B164A5 murine melanoma cells. […] Briefly, 1 × 10^4 cells per well were seeded onto 96-well culture plates and incubated until 70–80% confluence was achieved. Subsequently, the cells were subjected to stimulation for a duration of 72 h using five distinct concentrations (1, 10, 25, 50, and 75 µM) of the test samples. Following a 72 h incubation period, a 10 μL amount of a 5 mg/mL MTT solution obtained from the MTT kit (Sigma-Aldrich, St. Louis, MO, USA) was introduced into each well and subjected to an additional 3 h incubation. The formazan crystals that had been yielded were dissolved by the addition of 100 μL per well of the lysis solution that was included in the MTT kit. B164A5 cells and HaCaT cells were used as a control, and they were only treated with culture medium for 72 h. The spectrophotometric analysis of absorbance was performed at a wavelength of 570 nm using a microplate reader (BioRad, Hercules, CA, USA, xMark Microplate Spectrophotometer).

[6] = tested on: B164A5 murine melanoma cells; assay: MTT cell viability assay on B164A5; conditions: for reduction of cellular viability: 1 µM, 72 h, MTT; for viability at 75 µM: read-out: cell viability (growth percentage), 75 µM, 72 h, MTT; for viability at 1 µM: read-out: cell viability, 1 µM, 72 h, MTT
Protocol: as §2

[7] = tested on: murine melanoma cells (B164A5); assay: Neutral Red (NR) cytotoxicity assay; conditions: 75 µM, 72 h
Excerpt: In addition to undertaking the MTT proliferation assessment, the NR technique was used to measure the cytotoxicity rate of the substances being studied. The underlying premise of this methodology depends upon the measurement of live cells using the NR chromophore, which effectively stains the lysosome of living cells. […] Consequently, live cells have the capability to secrete the NR dye when subjected to acidic conditions. Moreover, the intensity of the dye may be directly associated with the quantity of living cells, thereby enabling the assessment of drug-induced cytotoxicity.
In summary, the experimental procedure included subjecting the cells to five different doses (1, 10, 25, 50, and 75 µM) of test samples for a duration of 72 h. Subsequently, a volume of 10 μL of a 0.33% NR solution was introduced into each well, followed by an incubation period of at least 3 h. Following the completion of the incubation time, the medium was extracted, and the cells were promptly rinsed with a 50 μL solution of NR assay fixative. Subsequently, a solubilization step was carried out using a 100 μL solution of NR assay solubilization solution per well.

[8] = tested on: B164A5 murine melanoma cells; assay: Lactate dehydrogenase (LDH) release assay; conditions: 75 µM, 72 h
Protocol: The LDH technique is used to evaluate the extracellular release of internal lactate dehydrogenase subsequent to the disruption of the cellular membrane.
The present investigation used the LDH test to assess the cytotoxicity and necrosis-related events that transpired after the exposure of B164A5 murine melanoma cells to the test samples for a duration of 72 h.
The experimental procedure was conducted in accordance with the instructions outlined in the pierce LDH cytotoxicity assay kit, which was supplied by the manufacturer (Thermo Fisher Scientific, Boston, MA, USA).

in vitro = conditions: human
Protocol: as §1, §2

[9] = tested on: A375 human melanoma cells; set-up: method as in PMID 27553358; conditions: 72 h incubation; cited from earlier work
Lox IMVI melanoma cells = tested on: Lox IMVI melanoma cells; set-up: method as in doi:10.1134/S1068162018030081; conditions: 100 µM, 48 h; cited from earlier work
SK-MEL-2 cells = tested on: SK-MEL-2 cells; set-up: method as in doi:10.1134/S1068162018030081; conditions: 100 µM, 48 h; cited from earlier work
[10] = MTT cell viability assay on HaCaT; conditions: human, HaCaT keratinocyte cells
Protocol: as §1, §2

Row | Compound | wound healing rate (scratch closure rate) (B164A5 cells) [%] | nuclear changes (apoptosis / necrosis) [1] | cytotoxic effect (LDH) [4] [%] | reduction in cell viability [5] | reduction of cellular viability [6] [%] | IC50 ([6]; Mus musculus, B16-4A5, 72 h) [µM] | viability at 75 µM ([6]; Mus musculus, B16-4A5, 72 h) [%] | viability at 1 µM ([6]; Mus musculus, B16-4A5, 72 h) [%] | wound healing rate [2] [%] | viability at 72 h, 75 µM (in vitro) [%] | inhibitory activity relative to BA4 ([6]; ratio of IC50 values) | other results
1 | C=C(C)[C@@H]1CC[C@]2(C(=O)O)CC[C@]3(C)[C@H](CC[C@@H]4[C@@]5(C)CC[C@H](O)C(C)(C)[C@@H]5CC[C@]43C)[C@@H]12 [BI, Betulinic acid] | 34.9 | necrosis only from a concentration of 50 μM; also recorded: necrosis was evident in cells exposed to BA4 and BI only at a concentration of 50 μM | 21.2 | around 21% | 32 | 21.14 ± 0.08 | 9.6 | 31.3 | – | – | – | scratch closure rate ([2]; 25 µM): 17.5%; reduction in cell viability ([3]; 25 µM, 48 h of exposure): 40%; cell viability ([3]; 72 h of exposure): 50%; decrease in cell viability (HaCaT cells): 20%; cell viability diminished by ([5]; concentrations exceeding 10 µM): approximately 20%; reduction in cell viability ([6]; 25 µM, 72 h exposure): 71%; cytotoxicity rate (NR assay) [7]: 63.0%; LDH release (cytotoxic rate) [8]: 52.7%
2 | C=C(C)[C@@H]1CC[C@]2(C(=O)NCC(=O)NCC(=O)O)CC[C@]3(C)[C@H](CC[C@@H]4[C@@]5(C)Cc6c([nH]c7ccccc67)C(C)(C)[C@@H]5CC[C@]43C)[C@@H]12 [BA2, N-(2,3-indolo-betulinoyl)glycylglycine] | 10.0 | specific signs of apoptosis (chromatin condensation) at both concentrations of 50 and 75 μM; also recorded: distinct signs of apoptosis, such as chromatin condensation, at both concentrations of 50 and 75 μM | – | – | 15 | 9.15 ± 0.05 | – | 15.9 | 30 | ~70 | approximately 2.20 fold | viability at 50 µM ([6]; Mus musculus, B16-4A5, 72 h, read-out: cell viability, 50 µM, 72 h, MTT): 0.41%
3 | C=C(C)[C@@H]1CC[C@]2(C(=O)NCC(=O)NCC(=O)NCC(=O)O)CC[C@]3(C)[C@H](CC[C@@H]4[C@@]5(C)Cc6c([nH]c7ccccc67)C(C)(C)[C@@H]5CC[C@]43C)[C@@H]12 [BA1, N-(2,3-indolo-betulinoyl)diglycylglycine] | – | apoptosis features only at a concentration of 75 μM; also recorded: apoptotic characteristics only at a concentration of 75 μM | – | – | 27 | 10.34 ± 0.06 | 5.7 | – | 35 | ~70 | – | IC50 [9]: 5.7 µM
4 | C=C(C)[C@@H]1CC[C@]2(C(=O)NCC(=O)O)CC[C@]3(C)[C@H](CC[C@@H]4[C@@]5(C)Cc6c([nH]c7ccccc67)C(C)(C)[C@@H]5CC[C@]43C)[C@@H]12 [BA3, N-(2,3-indolo-betulinoyl)glycine] | 21.3 | necrosis process being observed from concentration of 25 μM; also recorded: necrotic process being apparent at a dosage of 25 μM | – | – | – | 8.11 ± 0.13 | -1.5 | 8.1 | – | ~70 | approximately 2.20 fold | –
5 | C=C(C)C1CCC2(C(=O)O)CCC3(C)C(CCC4C5(C)Cc6c([nH]c7ccccc67)C(C)(C)C5CCC43C)C12 (stereo not shown) [BA4, 2,3-indolo-betulinic acid] | – | necrosis only from a concentration of 50 μM; also recorded: necrosis was evident in cells exposed to BA4 and BI only at a concentration of 50 μM | 43.36 | around 21% | – | 17.62 ± 0.11 | 15 | – | – | – | – | viability percentage (Lox IMVI melanoma cells): 44%; viability rate (SK-MEL-2 cells): 57%; cytotoxic rate (LDH) ([4]; 75 µM): 32.8%; viability at 72 h, 75 µM [10]: 80.3%; activity relative to parent triterpenoid BI ([6]; ratio of IC50 values): 1.2 times
